This experiment deals with T1, Sirt6 (Homo sapiens, UniProt Q8N6T7).
T1 construct: purchased CycLex CY-1156V2
In words: Measurement of Sirt6 Activity (CycLex Sirt6 Deacetylase Fluorometric Assay Kit). The experiment is classed as biochemical. The note with it: compound at 10 μM, fluorescence relative to the group without compound treatment (positive control group). An outline of the steps: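 Recombinant Sirt6 with fluoro-labelled acetyl-lysine peptide, NAD and lysylendopeptidase developer, compound added from 10× stock in PBS; 1 h at room temperature. Fluorescence read at ex 490/em 530 nm; activation expressed as fluorescence ratio relative to enzyme without compound.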

T1 sequence (Q8N6T7 whole entry): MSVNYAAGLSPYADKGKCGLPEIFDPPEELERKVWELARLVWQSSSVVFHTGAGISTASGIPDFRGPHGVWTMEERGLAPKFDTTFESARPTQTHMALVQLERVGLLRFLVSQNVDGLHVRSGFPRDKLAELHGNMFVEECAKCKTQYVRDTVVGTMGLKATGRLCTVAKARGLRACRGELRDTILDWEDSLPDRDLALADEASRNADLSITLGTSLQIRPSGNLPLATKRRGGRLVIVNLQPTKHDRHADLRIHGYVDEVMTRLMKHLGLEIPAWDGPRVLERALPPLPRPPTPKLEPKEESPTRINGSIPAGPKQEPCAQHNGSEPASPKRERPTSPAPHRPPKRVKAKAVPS

For the compound `CCS(=O)(=O)N(C)c1cccc(-c2nn(-c3ccc(F)cc3)c(=O)c3ccccc23)c1` [Example 70, N-(3-(3-(4-Fluorophenyl)-4-oxo-3,4-dihydrophthalazin-1-yl)phenyl)-N-methylethane Sulfonamide], the “Sirt6 Activity (% activity, 10 μM)” value is recorded as 135 % activity.

For `O=c1c2ccccc2c(-c2cc(/C=[N+](\[O-])Cc3ccccc3)ccc2F)nn1-c1ccc(F)cc1` [Example 58, (Z)—N-Benzyl-1-(4-fluoro-3-(3-(4-fluorophenyl)-4-oxo-3,4-dihydrophthalazin-1-yl)phenyl) Methanimine Oxide], the “Sirt6 Activity (% activity, 10 μM)” value turned out to be 131 % activity.

For the compound `COC(=O)N(C)S(=O)(=O)N(C)c1cccc(-c2nn(-c3ccc(F)cc3)c(=O)c3ccccc23)c1` [Example 76, Methyl (N-(3-(3-(4-fluorophenyl)-4-oxo-3,4-dihydrophthalazin-1-yl)phenyl)-N-methylsulfamoyl) (methyl)carbamate], the “Sirt6 Activity (% activity, 10 μM)” value is 125 % activity.

Consider `CC(C)(C(=O)O)C1CN(c2nn(-c3ccc(F)cc3F)c(=O)c3ccccc23)CCN1` (stereo not drawn) [Example 219, 2-(4-(3-(2,4-Difluorophenyl)-4-oxo-3,4-dihydrophthalazin-1-yl)piperazin-2-yl)-2-methylpropanoic Acid], for which the “Sirt6 Activity (% activity, 10 μM)” value stood at 114.60 % activity.

On to `CCS(=O)(=O)c1cccc(-c2nn(-c3c(F)cccc3F)c(=O)c3ccccc23)c1` [Example 106, 2-(2,6-Difluorophenyl)-4-(3-(ethylsulfonyl)phenyl)phthalazin-1(2H)-one], for which the “Sirt6 Activity (% activity, 10 μM)” value is given as 141 % activity.

For the compound `CC(C)/[N+]([O-])=C/c1cccc(-c2nn(-c3ccc(F)cc3)c(=O)c3ccccc23)c1` [Example 17, (Z)-1-(3-(3-(4-Fluorophenyl)-4-oxo-3,4-dihydrophthalazin-1-yl)phenyl)-N-isopropylmethanimine Oxide], the “Sirt6 Activity (% activity, 10 μM)” value (10 µM) was determined as 207 % activity.

On to `O=c1c2ccccc2c(-c2cccc(-c3nnn[nH]3)c2)nn1-c1ccc(F)cc1` [Example 81, 4-(3-(1H-Tetrazol-5-yl)phenyl)-2-(4-fluorophenyl)phthalazin-1(2H)-one], for which the “Sirt6 Activity (% activity, 10 μM)” value was determined as 115 % activity.

With `O=C1OCCN1c1cccc(-c2nn(-c3ccc(F)cc3)c(=O)c3ccccc23)c1` [Example 161, 3-(3-(3-(4-Fluorophenyl)-4-oxo-3,4-dihydrophthalazin-1-yl)phenyl)oxazolidin-2-one], the “Sirt6 Activity (% activity, 10 μM)” value stood at 177 % activity.

As for `CC(C)(/C(N)=N\O)c1cccc(-c2nn(-c3ccc(F)cc3F)c(=O)c3ccccc23)c1` [Example 170, (E)-2-(3-(3-(2,4-Difluorophenyl)-4-oxo-3,4-dihydrophthalazin-1-yl)phenyl)-N′-hydroxy-2-methyl propanimideamide], the “Sirt6 Activity (% activity, 10 μM)” value is 262.7 % activity.

As for `CCS(=O)(=O)Nc1cccc(-c2nn(Cc3ccccc3)c(=O)c3ccccc23)c1` [Example 61, N-(3-(3-Benzyl-4-oxo-3,4-dihydrophthalazin-1-yl)phenyl)ethanesulfonamide], the “Sirt6 Activity (% activity, 10 μM)” value was 104 % activity.

For `CC(C)NC(=O)C(C)(C)c1cccc(-c2nn(-c3ccc(F)cc3F)c(=O)c3ccccc23)c1` [Example 176, 2-(3-(3-(2,4-Difluorophenyl)-4-oxo-3,4-dihydrophthalazin-1-yl)phenyl)-N-isopropyl-2-methylpropanamide], the “Sirt6 Activity (% activity, 10 μM)” value is given as 244.30 % activity.

On to `CS(=O)(=O)c1cccc(-c2nn(-c3ccc(F)cc3F)c(=O)c3ccccc23)c1` [Example 89, 2-(2,4-Difluorophenyl)-4-(3-(methylsulfonyl)phenyl)phthalazin-1 (2H)-one], for which the “Sirt6 Activity (% activity, 10 μM)” value is listed as 339 % activity.

`CC(C)/[N+]([O-])=C/c1cc(-c2nn(-c3ccc(F)cc3)c(=O)c3ccccc23)ccc1F` [Example 52, (Z)-1-(2-Fluoro-5-(3-(4-fluorophenyl)-4-oxo-3,4-dihydrophthalazin-1-yl)phenyl)-N-isopropylmethanimine Oxide]: the “Sirt6 Activity (% activity, 10 μM)” value is on record as 172 % activity.

On to `Cl.NC1CCCCN(c2nn(C3CCCCC3)c(=O)c3ccccc23)C1` (stereo not drawn) [Example 143, 4-(3-Aminoazepan-1-yl)-2-cyclohexyl phthalazin-1(2H)-one-hydrochloride], for which the “Sirt6 Activity (% activity, 10 μM)” value was found to be 238.3 % activity.

`CCNS(=O)(=O)c1cccc(-c2nn(-c3ccc(F)cc3F)c(=O)c3ccccc23)c1` [Example 92, 3-(3-(2,4-Difluorophenyl)-4-oxo-3,4-dihydrophthalazin-1-yl)-N-ethylbenzene Sulfonamide]: the “Sirt6 Activity (% activity, 10 μM)” value worked out at 208 % activity.

For the compound `O=c1c2ccccc2c(-c2cccc(/C=[N+](\[O-])Cc3ccccc3)c2)nn1-c1ccccc1` [Example 35, (Z)—N-Benzyl-1-(3-(4-oxo-3-phenyl-3,4-dihydrophthalazin-1-yl)phenyl)methanimine Oxide], the “Sirt6 Activity (% activity, 10 μM)” value was 113 % activity.

For `CC(C)(C)/[N+]([O-])=C/c1cccc(-c2nn(-c3ccccc3F)c(=O)c3ccccc23)c1` [Example 96, (Z)—N-tert-Butyl-1-(3-(3-(2-fluorophenyl)-4-oxo-3,4-dihydrophthalazin-1-yl)phenyl)methanimine Oxide], the “Sirt6 Activity (% activity, 10 μM)” value stood at 176 % activity.

As to `NS(=O)(=O)c1cccc(-c2nn(C3CCCCC3)c(=O)c3ccccc23)c1` [Example 142, 3-(3-Cyclohexyl-4-oxo-3,4-dihydrophthalazin-1-yl)benzenesulfonamide], the “Sirt6 Activity (% activity, 10 μM)” value is on record as 162.3 % activity.

Turning to `C/[N+]([O-])=C/c1cccc(-c2nn(-c3cccc(F)c3)c(=O)c3ccccc23)c1` [Example 27, (Z)-1-(3-(3-(3-Fluorophenyl)-4-oxo-3,4-dihydrophthalazin-1-yl)phenyl)-N-methylmethanimine Oxide], the “Sirt6 Activity (% activity, 10 μM)” value was found to be 148 % activity.

On to `O=c1c2ccccc2c(-c2cccc(NS(=O)(=O)C3CC3)c2)nn1-c1ccc(F)cc1` [Example 71, N-(3-(3-(4-Fluorophenyl)-4-oxo-3,4-dihydrophthalazin-1-yl)phenyl)cyclopropane Sulfonamide], for which the “Sirt6 Activity (% activity, 10 μM)” value is listed as 150 % activity.

Consider `O=C(O)C1(C2CCCN(c3nn(-c4ccc(F)cc4F)c(=O)c4ccccc34)C2)CC1` (stereo not drawn) [Example 213-2, 1-(1-(3-(2,4-Difluorophenyl)-4-oxo-3,4-dihydrophthalazin-1-yl)piperidin-3-yl)cyclopropan-1-carboxylic Acid], for which the “Sirt6 Activity (% activity, 10 μM)” value (10 µM) is 102.60 % activity.

Consider `Cl.O=c1c2ccccc2c(N2CCCC[C@@H](NCCO)C2)nn1-c1ccc(F)cc1F` [Example 191, (R)-2-(2,4-Difluorophenyl)-4-(3-((2-hydroxyethyl)amino)azepan-1-yl)phthalazin-1(2H)-one-hydro Chloride], for which the “Sirt6 Activity (% activity, 10 μM)” value was 312.70 % activity.

As to `CC(C)(C(N)=O)c1cccc(-c2nn(-c3ccc(Cl)cc3)c(=O)c3ccccc23)c1` [Example 197, 2-(3-(3-(4-Chlorophenyl)-4-oxo-3,4-dihydrophthalazin-1-yl)phenyl)-2-methylpropanamide], the “Sirt6 Activity (% activity, 10 μM)” value is listed as 153.60 % activity.

With `COC(=O)c1cccc(-c2nn(-c3ccc(F)cc3)c(=O)c3ccccc23)c1` [Example 66, Methyl 3-(3-(4-fluorophenyl)-4-oxo-3,4-dihydrophthalazin-1-yl)benzoate], the “Sirt6 Activity (% activity, 10 μM)” value was 103 % activity.

For the origin of these results see patent US20220235011A1, “PHTHALAZINONE COMPOUNDS AND USE THEREOF” (ST PHARM CO., LTD., priority 2019, published 2022).
